{"source": "patent US10471025B2", "about": "“Compositions for use in treating parkinson's disease and related disorders” (Technophage, Investigação E Desenvolvimento Em …, priority 2015, dated 2019)", "key": {"[1]": {"tested_on": "6-OHDA treated zebrafish larvae", "assay": "Locomotor behavior rescue (total distance moved, number of jumps) in 6-OHDA zebrafish PD model", "format": "in vivo", "excerpt": "To model Parkinson ̆s disease (PD), a neurotoxin 6-OHDA (6-hyroxydopamine) based method was used in zebrafish and in mice. In this model, 6-OHDA-lesions induce motor manifestations in zebrafish and in mice, such as reduced locomotor ability, and the loss of dopaminergic neurons. Based on the 6-OHDA PD zebrafish model, compounds from a small molecules library were screened for rescue of the parkinsonian phenotype (Example 1, see below).\nThe screen was based on both the recovery of impaired locomotor behavior and dopaminergic neuronal loss.\nValues were normalized for the mean of disease state in each experiment (disease=1). Each plot contains data from 3 independent experiments with a total of 24 larvae. As a control, zebrafish were treated with only the vehicle, ascorbic acid.\nFor these experiments, Tubingen (TU) wild-type zebrafish, a specific strain of wild-type zebrafish, were used."}, "[2]": {"tested_on": "6-OHDA treated zebrafish larvae", "assay": "Freezing (duration of freezing periods, light/dark stimulus) in 6-OHDA zebrafish larvae", "format": "in vivo", "settings": "tapentadol 48.5, stavudine 50, nabumetone 0.91 μM; L-Dopa treatment", "description": "In the zebrafish model, the locomotor impairment was measured and related with bradykinesia in patients. Tests included evaluating ‘freezing_ in response to a light/dark stimulus. 6-OHDA induced larvae had fewer freezing episodes but spent longer periods in the frozen state. In previous studies, the duration of freezing episodes has been analyzed in PD patients. […] Nonetheless, it is an inhibitor of the neuronal dopamine transporter and since 6-OHDA needs DAT to enter the neuron and induce the disease, methylphenidate may be a false positive.\nAs FIGS. 9B-9C show, freezing recovery was tested using 7 candidate molecules at optimal concentrations, in an exemplary experiment with n=8 fish, and methylphenidate and amantadine at 25 ? M."}, "[3]": {"tested_on": "6-OHDA mouse model", "assay": "Rotarod test, unilateral striatal 6-OHDA mice (Example 5)", "format": "in vivo"}, "[4]": {"tested_on": "6-OHDA mouse model", "assay": "Cylinder test, 6-OHDA mice (Example 5)", "format": "in vivo"}, "[5]": {"tested_on": "6-OHDA mouse model", "assay": "Abnormal involuntary movements, 6-OHDA mice (Example 5)", "format": "in vivo", "settings": "28 days post injection; 30 and 90 minutes after treatment", "description": "This condition results in a range of involuntary movements that can be evaluated by video tracking analyses. […] Evaluations were performed during two independent trials, 30 and 90 minutes after treatment administration. […] Nonetheless, forelimb and orofacial involuntary movements are extremely hard to detect, and reading errors occur, considering the size of the animals. Total abnormal involuntary movements are the sum of all 4 different involuntary movements evaluated and is the parameter often reported in the literature.\nAs FIGS. 17A-17F show, abnormal involuntary movements were evaluated using the cylinder test 28 days post injection. […] Values mean ě SEM (n=5-8)."}, "[6]": {"tested_on": "healthy wild type mice", "assay": "Toxicity assay, open field test in healthy wild type mice (Example 6)", "format": "in vivo, mouse", "settings": "1 h after i.p.; tapentadol C1 8.3 mg/kg in combination with L-Dopa 18 mg/kg", "excerpt": "Necropsy was done after cervical dislocation. […] Saline was given to the control group."}, "[7]": {"tested_on": "healthy wild type mice", "assay": "Toxicity assay, welfare and necropsy (Example 6)", "settings": "24 h", "description": "Their behavior was evaluated with open field tests for 1 h after i.p. injection. After 24 h, animals were sacrificed and necropsy was performed\n9 week old NMRI female mice were used for this assay. Animals were tested for their welfare after two intraperitoneal injections of the test agents using the open field test. Necropsy was done after cervical dislocation. […] Benserazide at 12 mg/kg was administered 30 minutes prior to administration of these compounds, in all groups. Saline was given to the control group.\nAfter benserazide administration, animals were monitored in the open field for 30 minutes for habituation. […] 24 hours after administration of the compounds, the animals were sacrificed and necropsy performed.\nFor administration of the various agents to the animals, two 700 ? L injections were administered 30 minutes apart."}, "[8]": {"tested_on": "6-OHDA mouse model", "format": "in vivo", "settings": "for Gait test: maximum velocity, mean velocity, percentage of time resting or moving fast: tapentadol hydrochloride 8 or 15 mg/kg/day, hydrochloride", "description": "That is, tapentadol hydrochloride C1 concentration dosage was increased to 8 mg/kg/day and tapentadol hydrochloride C3 concentration dosage was increased to 15 mg/kg/day. The gait test plan is illustrated in FIGS. 24A-24B.\nTo better observe the movement pattern of mice ̆s limbs, a new device was engineered similar to that used in a beam test, but with a closed corridor and a door. The apparatus was transparent with two home-cages at the extremities, one at the entrance that is transparent and another on the opposite end that is black. Each test was repeated 5 times and the 3 more consistent trials were selected for paw placement analysis. Data was recorded by 3 different cameras: on the bottom, top, and side of the corridor. Each camera allowed measurement of a different gait parameter. Specifically, the bottom camera allowed measurement, through the base of the support, of the hind paw distance and hind paw angle. The top camera allowed measurement of different parameters at distinct zones^—in the green area (most of the length of the apparatus), maximum and mean velocity, percentage of time resting/moving slow/moving fast, and time to the door were measured; the dark blue area provided a lag zone; and in the yellow area (area in front of the door), the permanence time before the door, mean velocity before the door, and latency to cross the door were measured. The side camera was used to analyze mice posture."}, "[9]": {"settings": "storage below 25 éC; cited from earlier work"}, "[10]": {"tested_on": "rat", "settings": "cited from earlier work"}, "[11]": {"settings": "chronic dosing; cited from earlier work"}, "[12]": {"settings": "cited from earlier work"}, "[13]": {"settings": "cited from earlier work", "remark": "listed apart in the source"}, "[14]": {"tested_on": "cytochrome P450 (CY P) isoenzymes", "settings": "cited from earlier work"}, "[15]": {"tested_on": "6-OHDA treated zebrafish larvae", "assay": "LD50 / lethality in the disease context of the zebrafish model"}}, "note": "Values joined by “and” are separate entries in the source; they are usually repeats but may differ in a detail not shown here. Identical values can stand only once. “Also recorded” adds a separate entry of the source. Counter-ions that a name gives are not always drawn. Like-named read-outs stand apart in the source and are kept apart here."}
{"smiles": "CC[C@@H](c1cccc(O)c1)[C@@H](C)CN(C)C", "note": "[tapentadol, tapentadol hydrochloride]", "values": [{"measurement": "Therapeutic window", "setting": "[1]; 6-OHDA zebrafish larvae", "value": "20 to 113", "unit": "µM"}, {"measurement": "Locomotor behavior rescue (total distance moved, number of jumps), confirmation of screen", "setting": "[1]; 7 candidate molecules, 3 independent experiments", "value": "strong candidates"}, {"measurement": "Optimal concentration", "setting": "[1]; behavioral experiments and TH+ cell counts", "value": 48.5, "unit": "µM"}, {"measurement": "Total distance travelled, difference between treated larvae and disease control", "setting": "[1]; tapentadol 48.5, stavudine 50, nabumetone 0.456 and 0.91 μM, n=8 fish", "value": "~200", "unit": "mm"}, {"measurement": "Number of jumps: concentration validated as recovering the 6-OHDA induced behavior", "setting": "[1]; zebrafish, in vivo", "value": 56.25, "unit": "µM"}, {"measurement": "Duration of freezing periods, recovery vs 6-OHDA treated larvae", "setting": "[2]", "value": "not recovered"}, {"measurement": "Rotarod: latency to fall and speed, recovery", "setting": "[3]; C1 2.8 mg/kg/day i.p., 8 and 15 days post lesion", "value": "best recovery between groups, although not significant"}, {"measurement": "Rotarod: latency to fall and speed, recovery", "setting": "[3]; daily i.p., dosages tested (C1 and C2)", "value": "behavioral recovery over time"}, {"measurement": "Cylinder test: recovery over the parameters analyzed", "setting": "[4]; concentration 1 (2.8 mg/kg/day), hydrochloride, 2.8 mg/kg/day", "value": "showed a recovery; also recorded: strongest recovery"}, {"measurement": "Cylinder test: recovery over the parameters analyzed", "setting": "[4]; concentration 2 (0.9 mg/kg/day)", "value": "did not show significant recovery"}, {"measurement": "Induction of abnormal involuntary movements", "setting": "[5]", "value": "None of the treatments, tapentadol or stavudine of the combination, induced involuntary movements"}, {"measurement": "Open field behavior (velocity, distance, time resting/moving)", "setting": "[6]", "value": "slightly different behavior in three out of the four parameters analyzed"}, {"measurement": "Necropsy findings", "setting": "[7]; tapentadol C1 8.3 mg/kg in combination with L-Dopa", "value": "Two of the three animals treated with tapentadol C1 concentration had a slight hyperemia in the small intestine"}, {"measurement": "Necropsy findings", "setting": "[7]; tapentadol C3 15 mg/kg in combination with L-Dopa", "value": "One of the three animals treated with tapentadol C3 concentration had an intestinal congestion"}, {"measurement": "Gait test: all parameters measured", "setting": "[8]; 21 dpi, L-Dopa ON period", "value": "no significant improvement"}, {"measurement": "Gait test: permanence time before the door, latency to cross the door, mean velocity before the door", "setting": "[8]; 29 dpi, L-Dopa OFF period", "value": "behavioral recovery"}, {"measurement": "Gait test: maximum velocity, mean velocity, percentage of time resting or moving fast", "setting": "[8]; 29 dpi, L-Dopa OFF period, listed as Tapentadol hydrochloride", "value": "behavioral recovery"}, {"measurement": "Gait test: maximum velocity, mean velocity, percentage of time resting or moving fast", "setting": "[8]; 29 dpi, L-Dopa OFF period, listed as tapentadol hydrochloride", "value": "ameliorated"}, {"measurement": "Re-test period", "setting": "[9]", "value": 30, "unit": "months"}, {"measurement": "LD50", "setting": "[10]; intravenous administration, rats", "value": 45, "unit": "mg/kg"}, {"measurement": "LD50", "setting": "[10]; oral administration, rat", "value": 980, "unit": "mg/kg"}, {"measurement": "Hepatic hypertrophy", "setting": "[11]", "value": "present in all animal species"}, {"measurement": "Dose with exaggerated pharmacological effects", "setting": "[12]; 52-week dog study, oral dosing", "value": 30, "unit": "mg/kg"}, {"measurement": "Dose groups with QT prolongation", "setting": "[12]; dogs, hydrochloride", "value": "80 mg/kg and 120 mg/kg"}, {"measurement": "Absorption after oral administration", "setting": "[13]; dog, mice, and rats", "value": "completely absorbed"}, {"measurement": "Bioavailability", "setting": "[13]; dogs and rats", "value": "low"}, {"measurement": "Placenta-blood barrier crossing", "setting": "[13]; in vivo", "value": "crosses the placenta-blood barrier, but to a lesser extent"}, {"measurement": "Induction of CYP isoenzymes", "setting": "[14]", "value": "no significant induction"}, {"measurement": "LD50", "setting": "[15]; 6-OHDA disease-induced zebrafish larvae", "value": "8079 | M"}, {"measurement": "LD50", "setting": "[15]; 6-OHDA zebrafish larvae", "value": "8,079 μM"}]}
